In PubChem BioAssay (NCI):
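Tested at 5 concentrations; 48 h exposure; 96-well plates; endpoints linearly interpolated, else capped at highest concentration. At the GI50, growth is halved. Definition used: TGI = concentration required for complete inhibition of growth.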

Tests used:
Assay in all cases: NCI tumour cell line growth inhibition, 48 h
HCC-2998 colon = tested on: HCC-2998 colon
COLO 205 colon = tested on: COLO 205 colon
SF-539 CNS = tested on: SF-539 CNS
MDA-MB-231 breast = tested on: MDA-MB-231 breast
OVCAR-4 ovarian = tested on: OVCAR-4 ovarian
HCT-116 colon = tested on: HCT-116 colon
OVCAR-8 ovarian = tested on: OVCAR-8 ovarian
MCF7 breast = tested on: MCF7 breast
NCI-H23 lung = tested on: NCI-H23 lung
SNB-75 CNS = tested on: SNB-75 CNS
NCI-H226 lung = tested on: NCI-H226 lung
OVCAR-3 ovarian = tested on: OVCAR-3 ovarian
DU-145 prostate = tested on: DU-145 prostate
K-562 leukemia = tested on: K-562 leukemia
HL-60(TB) leukemia = tested on: HL-60(TB) leukemia
KM12 colon = tested on: KM12 colon
SK-MEL-2 melanoma = tested on: SK-MEL-2 melanoma
HS 578T breast = tested on: HS 578T breast
MOLT-4 leukemia = tested on: MOLT-4 leukemia
OVCAR-5 ovarian = tested on: OVCAR-5 ovarian
SF-295 CNS = tested on: SF-295 CNS
MALME-3M melanoma = tested on: MALME-3M melanoma
NCI-H460 lung = tested on: NCI-H460 lung
SW-620 colon = tested on: SW-620 colon
M14 melanoma = tested on: M14 melanoma
SK-OV-3 ovarian = tested on: SK-OV-3 ovarian
CAKI-1 renal = tested on: CAKI-1 renal

## CSc1ccc2c3c(n(C[C@H](O)CO)c(=O)c2c1)-c1ccccc1C3=O
HCC-2998 colon
  TGI: 18 µM
COLO 205 colon
  GI50: 2.94 µM
  TGI: 21.1 µM
SF-539 CNS
  GI50: 2.36 µM
  TGI: 7.37 µM
MDA-MB-231 breast
  GI50: 3.13 µM
  TGI: 15.1 µM
OVCAR-4 ovarian
  GI50: 6.38 µM
  TGI: > 100 µM
HCT-116 colon
  GI50: 0.742 µM
  TGI: 2.35 µM
OVCAR-8 ovarian
  GI50: 2.21 µM
  TGI: 20.9 µM
MCF7 breast
  GI50: 0.423 µM
  TGI: 11 µM
NCI-H23 lung
  GI50: 2.95 µM
  TGI: 12.7 µM
SNB-75 CNS
  GI50: 12.5 µM
  TGI: > 100 µM
NCI-H226 lung
  GI50: 1.86 µM
  TGI: 5.31 µM
OVCAR-3 ovarian
  GI50: 4.33 µM
  TGI: 41.9 µM
DU-145 prostate
  GI50: 2.5 µM
  TGI: > 100 µM
K-562 leukemia
  GI50: 1.72 µM
  TGI: > 100 µM
HL-60(TB) leukemia
  GI50: 1.81 µM
  TGI: 11.7 µM
KM12 colon
  GI50: 2.26 µM
  TGI: 10.3 µM
SK-MEL-2 melanoma
  GI50: 16.6 µM
  TGI: 60.8 µM
HS 578T breast
  GI50: 15.8 µM
  TGI: 78.8 µM
MOLT-4 leukemia
  GI50: 0.368 µM
  TGI: 2.33 µM
OVCAR-5 ovarian
  GI50: 3.1 µM
  TGI: 10.6 µM
SF-295 CNS
  GI50: 2.82 µM
  TGI: 12 µM
MALME-3M melanoma
  GI50: 4.3 µM
  TGI: 22 µM
NCI-H460 lung
  GI50: 0.476 µM
  TGI: 2.33 µM
SW-620 colon
  GI50: 0.978 µM
  TGI: 43.6 µM
M14 melanoma
  GI50: 4.09 µM
  TGI: 58.3 µM
SK-OV-3 ovarian
  GI50: 6.06 µM
  TGI: 34.2 µM
CAKI-1 renal
  GI50: 1.11 µM
  TGI: 5.74 µM
